Experimental data published in patent US9879032B2, “Pyridine compounds” (Daiichi Sankyo Company, Limited, priority 2015, dated 2018).

These compounds were tested against human TNAP (Homo sapiens (Human), UniProt P05186) (assay: Inhibitory test of TNAP activity (pNPP substrate, p-nitrophenol production)). Conditions: inhibition of human TNAP activity, incubated at room temperature for 60 minutes.
Assay type: biochemical
Method: COS 1 cells (DS Pharma Biomedical Co., Ltd.) were transfected with human TNAP (OriGene Technologies, Inc.) using Lipofectamine LTX & Plus reagent (Invitrogen Corp.). On the next day, the medium was replaced with a fresh medium, and the cells were cultured in an incubator for 3 days. After 3 days, the culture supernatant was collected and concentrated by centrifugation at 5000 G for 30 minutes using Amicon 14, 10^4 cut (Merck Millipore). The concentrated culture supernatant was dialyzed against 5 L of 50 mM Tris/200 mM NaCl/1 mM MgCl2/20 μM ZnCl2 twice and used as an enzyme source (enzyme solution). The substrate pNPP (ProteoChem Inc.) was adjusted to 3.1 mM with Milli-Q water, and a solution of each test compound dissolved in dimethyl sulfoxide (DMSO; Wako Pure Chemical Industries, Ltd.) by 6 serial dilutions at a 5-fold common ratio from 100 μM, or DMSO was added thereto at a final concentration of 1% by volume. The enzyme solution adjusted to 2 μg/mL with an assay buffer (200 mM Tris/2 mM MgCl2/0.04 mM ZnCl2/0.01% Tween 20) was added in the same amount of the substrate solution and incubated at room temperature for 60 minutes. Then, the absorbance (ABS: 405 nm) was measured using a microplate reader (model plus 384, Molecular Devices, LLC), and the concentration of produced p-nitrophenol was calculated.

Sequence of human TNAP (P05186 18-502): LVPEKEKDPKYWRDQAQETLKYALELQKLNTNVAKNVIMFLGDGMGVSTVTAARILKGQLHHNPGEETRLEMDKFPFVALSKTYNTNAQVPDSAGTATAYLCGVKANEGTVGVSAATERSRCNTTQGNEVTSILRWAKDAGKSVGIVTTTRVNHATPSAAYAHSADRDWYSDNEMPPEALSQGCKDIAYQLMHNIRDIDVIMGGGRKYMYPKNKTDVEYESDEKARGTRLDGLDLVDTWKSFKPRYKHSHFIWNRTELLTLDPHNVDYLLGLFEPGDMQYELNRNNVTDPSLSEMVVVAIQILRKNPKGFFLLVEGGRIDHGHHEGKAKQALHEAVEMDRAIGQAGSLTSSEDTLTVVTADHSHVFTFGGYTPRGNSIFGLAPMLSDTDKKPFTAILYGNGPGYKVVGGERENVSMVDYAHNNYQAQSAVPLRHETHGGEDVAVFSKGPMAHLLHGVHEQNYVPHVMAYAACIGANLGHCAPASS

Row | SMILES | IC50 [nM]
1 | O=C1N[C@@H](CO)COc2ncc(NS(=O)(=O)c3cc(F)ccc3OC(F)(F)F)cc21 [Example 32, 5-Fluoro-N-[(3S)-3-(hydroxymethyl)-5-oxo-2,3,4,5-tetrahydropyrido[3,2-f][1,4]oxazepin-7-yl]-2-(trifluoromethoxy)benzenesulfonamide] | 4.1
2 | COc1ccc(Cl)cc1S(=O)(=O)Nc1cnc2c(c1)C(=O)N(C)CC(C)O2 (stereo not shown) [Example 14, 5-Chloro-N-(2,4-dimethyl-5-oxo-2,3,4,5-tetrahydropyrido[3,2-f][1,4]oxazepin-7-yl)-2-methoxybenzenesulfonamide] | 36.2
3 | COc1ccc(Cl)cc1S(=O)(=O)Nc1cnc2c(c1)C(=O)N(CCO)CCO2 [Example 6, 5-Chloro-N-[4-(2-hydroxyethyl)-5-oxo-2,3,4,5-tetrahydropyrido[3,2-f][1,4]oxazepin-7-yl]-2-methoxybenzenesulfonamide] | 6.1
4 | CCOc1ccc(F)cc1S(=O)(=O)Nc1cnc2c(c1)C(=O)NC1(CC1)CO2 [Example 42, 2-Ethoxy-5-fluoro-N-(5′-oxo-4′,5′-dihydrospiro[cyclopropane-1,3′-pyrido[3,2-f][1,4]oxazepin]-7′-yl)benzenesulfonamide] | 0.6
5 | COc1ccc(Cl)cc1S(=O)(=O)Nc1cnc2c(c1)C(=O)N[C@@H](CO)CO2 [Example 27, 5-Chloro-N-[(3S)-3-(hydroxymethyl)-5-oxo-2,3,4,5-tetrahydropyrido[3,2-f][1,4]oxazepin-7-yl]-2-methoxybenzenesulfonamide] | 1.5
6 | COc1ccc(Cl)cc1S(=O)(=O)Nc1cnc2c(c1)C(=O)N(C)C(C)CO2 (stereo not shown) [Example 16, 5-Chloro-N-(3,4-dimethyl-5-oxo-2,3,4,5-tetrahydropyrido[3,2-f][1,4]oxazepin-7-yl)-2-methoxybenzenesulfonamide] | 6.2
7 | COc1ccc(Cl)cc1S(=O)(=O)Nc1cnc2c(c1)C(=O)N(C)CCO2 [Example 1, 5-Chloro-2-methoxy-N-(4-methyl-5-oxo-2,3,4,5-tetrahydropyrido[3,2-f][1,4]oxazepin-7-yl)benzenesulfonamide] | 6.3
8 | CC[C@H]1COc2ncc(NS(=O)(=O)c3cc(Cl)ccc3OC)cc2C(=O)N1C [Example 24, 5-Chloro-N-[(3S)-3-ethyl-4-methyl-5-oxo-2,3,4,5-tetrahydropyrido[3,2-f][1,4]oxazepin-7-yl]-2-methoxybenzenesulfonamide] | 7.2
9 | O=C1NCCOc2ncc(NS(=O)(=O)c3cc(Cl)ccc3OC(F)(F)F)cc21 [Example 13, 5-Chloro-N-(5-oxo-2,3,4,5-tetrahydropyrido[3,2-f][1,4]oxazepin-7-yl)-2-(trifluoromethoxy)benzenesulfonamide] | 3.4
10 | O=C1N[C@@H](CO)COc2ncc(NS(=O)(=O)c3cc(Cl)ccc3OC(F)(F)F)cc21 [Example 31, 5-Chloro-N-[(3S)-3-(hydroxymethyl)-5-oxo-2,3,4,5-tetrahydropyrido[3,2-f][1,4]oxazepin-7-yl]-2-(trifluoromethoxy)benzenesulfonamide] | 1.6
11 | COc1ccc(F)cc1S(=O)(=O)Nc1cnc2c(c1)C(=O)N(C)[C@@H](C)CO2 [Example 19, N-[(3S)-3,4-Dimethyl-5-oxo-2,3,4,5-tetrahydropyrido[3,2-f][1,4]oxazepin-7-yl]-5-fluoro-2-methoxybenzenesulfonamide] | 6.4
12 | COc1ccc(Cl)cc1S(=O)(=O)Nc1cnc2c(c1)C(=O)NC(C(=O)N(C)C)CO2 (stereo not shown) [Example 45, 7-{[(5-Chloro-2-methoxyphenyl)sulfonyl]amino}-N,N-dimethyl-5-oxo-2,3,4,5-tetrahydropyrido[3,2-f][1,4]oxazepine-3-carboxamide] | 14.6
13 | COc1ccc(OC)c(S(=O)(=O)Nc2cnc3c(c2)C(=O)NC2(CC2)CO3)c1 [Example 43, 2,5-Dimethoxy-N-(5′-oxo-4′,5′-dihydrospiro[cyclopropane-1,3′-pyrido[3,2-f][1,4]oxazepin]-7′-yl)benzenesulfonamide] | 1
14 | COc1ccc(F)cc1S(=O)(=O)Nc1cnc2c(c1)C(=O)NC1(CC1)CO2 [Example 36, 5-Fluoro-2-methoxy-N-(5′-oxo-4′,5′-dihydrospiro[cyclopropane-1,3′-pyrido[3,2-f][1,4]oxazepin]-7′-yl)benzenesulfonamide] | 2.2
15 | COc1ccc(Cl)cc1S(=O)(=O)Nc1cnc2c(c1)C(=O)NC(c1cccnc1)CO2 (stereo not shown) [Example 44, 5-Chloro-2-methoxy-N-[5-oxo-3-(pyridin-3-yl)-2,3,4,5-tetrahydropyrido[3,2-f][1,4]oxazepin-7-yl]benzenesulfonamide] | 1.4
16 | COc1ccc(F)cc1S(=O)(=O)Nc1cnc2c(c1)C(=O)NCCO2 [Example 10, 5-Fluoro-2-methoxy-N-(5-oxo-2,3,4,5-tetrahydropyrido[3,2-f][1,4]oxazepin-7-yl)benzenesulfonamide] | 4

Further lines, results first:

Row | IC50 [nM] | SMILES
17 | 3.8 | COc1ccc(OC)c(S(=O)(=O)Nc2cnc3c(c2)C(=O)N[C@@H](CO)CO3)c1 [Example 30, N-[(3S)-3-(Hydroxymethyl)-5-oxo-2,3,4,5-tetrahydropyrido[3,2-f][1,4]oxazepin-7-yl]-2,5-dimethoxybenzenesulfonamide]
18 | 27.1 | COc1ccc(Cl)cc1S(=O)(=O)Nc1cnc2c(c1)C(=O)N(C)[C@H](C)CO2 [Example 20, 5-Chloro-N-[(3R)-3,4-dimethyl-5-oxo-2,3,4,5-tetrahydropyrido[3,2-f][1,4]oxazepin-7-yl]-2-methoxybenzenesulfonamide]
19 | 12.7 | COc1ccc(F)cc1S(=O)(=O)Nc1cnc2c(c1)C(=O)N(C)CCO2 [Example 2, 5-Fluoro-2-methoxy-N-(4-methyl-5-oxo-2,3,4,5-tetrahydropyrido[3,2-f][1,4]oxazepin-7-yl)benzenesulfonamide]
20 | 4.8 | COc1ccc(OC)c(S(=O)(=O)Nc2cnc3c(c2)C(=O)NCCO3)c1 [Example 11, 2,5-Dimethoxy-N-(5-oxo-2,3,4,5-tetrahydropyrido[3,2-f][1,4]oxazepin-7-yl)benzenesulfonamide]
21 | 1.9 | COc1ccc(Cl)cc1S(=O)(=O)Nc1cnc2c(c1)C(=O)N[C@@H](CCO)CO2 [Example 33, 5-Chloro-N-[(3S)-3-(2-hydroxyethyl)-5-oxo-2,3,4,5-tetrahydropyrido[3,2-f][1,4]oxazepin-7-yl]-2-methoxybenzenesulfonamide]
22 | 25.2 | COc1ccc(Cl)cc1S(=O)(=O)Nc1cnc2c(c1)C(=O)NC(C(=O)N1CCOCC1)CO2 (stereo not shown) [Example 46, 5-chloro-2-methoxy-N-[3-(morpholin-4-ylcarbonyl)-5-oxo-2,3,4,5-tetrahydropyrido[3,2-f][1,4]oxazepin-7-yl]benzenesulfonamide]
23 | 8.7 | COc1ccc(Cl)cc1S(=O)(=O)Nc1cnc2c(c1)C(=O)N[C@@H](C(C)C)CO2 [Example 26, 5-Chloro-2-methoxy-N-[(3S)-5-oxo-3-(propan-2-yl)-2,3,4,5-tetrahydropyrido[3,2-f][1,4]oxazepin-7-yl]benzenesulfonamide]
24 | 10.7 | COCCN1CCOc2ncc(NS(=O)(=O)c3cc(Cl)ccc3OC)cc2C1=O [Example 7, 5-Chloro-2-methoxy-N-[4-(2-methoxyethyl)-5-oxo-2,3,4,5-tetrahydropyrido[3,2-f][1,4]oxazepin-7-yl]benzenesulfonamide]
25 | 22.9 | CCN1CCOc2ncc(NS(=O)(=O)c3cc(F)ccc3OC)cc2C1=O [Example 4, N-(4-Ethyl-5-oxo-2,3,4,5-tetrahydropyrido[3,2-f][1,4]oxazepin-7-yl)-5-fluoro-2-methoxybenzenesulfonamide]
26 | 3.9 | COc1ccc(Cl)cc1S(=O)(=O)Nc1cnc2c(c1)C(=O)N(C)[C@@H](C)CO2 [Example 18, 5-Chloro-N-[(3S)-3,4-dimethyl-5-oxo-2,3,4,5-tetrahydropyrido[3,2-f][1,4]oxazepin-7-yl]-2-methoxybenzenesulfonamide]
27 | 12.6 | COc1ccc(F)cc1S(=O)(=O)Nc1cnc2c(c1)C(=O)N(C)C(C)CO2 (stereo not shown) [Example 17, N-(3,4-Dimethyl-5-oxo-2,3,4,5-tetrahydropyrido[3,2-f][1,4]oxazepin-7-yl)-5-fluoro-2-methoxybenzenesulfonamide]
28 | 71.3 | COc1ccc(Cl)cc1S(=O)(=O)Nc1cnc2c(c1)C(=O)N(C(C)C)CCO2 [Example 5, 5-Chloro-2-methoxy-N-[5-oxo-4-(propan-2-yl)-2,3,4,5-tetrahydropyrido[3,2-f][1,4]oxazepin-7-yl]benzenesulfonamide]
29 | 2.7 | O=C1NC2(CC2)COc2ncc(NS(=O)(=O)c3cc(F)ccc3OC(F)(F)F)cc21 [Example 41, 5-Fluoro-N-(5′-oxo-4′,5′-dihydrospiro[cyclopropane-1,3′-pyrido[3,2-f][1,4]oxazepin]-7′-yl)-2-(trifluoromethoxy)benzenesulfonamide]
30 | 12.8 | CCN1CCOc2ncc(NS(=O)(=O)c3cc(Cl)ccc3OC)cc2C1=O [Example 3, 5-Chloro-N-(4-ethyl-5-oxo-2,3,4,5-tetrahydropyrido[3,2-f][1,4]oxazepin-7-yl)-2-methoxybenzenesulfonamide]
31 | 1.7 | COc1ccc(Cl)cc1S(=O)(=O)Nc1cnc2c(c1)C(=O)N[C@@H](C)CO2 [Example 22, 5-Chloro-2-methoxy-N-[(3S)-3-methyl-5-oxo-2,3,4,5-tetrahydropyrido[3,2-f][1,4]oxazepin-7-yl]benzenesulfonamide]
